Data on one cell line can be found in the supplement of paper PMC10307832.

Holding throughout (assay): relative viability (nuclei count vs DMSO), 5 days (fraction); higher = more cells survive
Compound in assay [1]: C1=CC2=NC=CN=C2C=C1/C=C/3\C(=O)NC(=O)S3
Put shortly:
(§1)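 Vehicle-anchored 1536-well plates of lung cancer cell lines, held overnight at 37 °C, were pinned with five library-drug doses (not always all listed) spaced by √10. No medium change followed over the next 5 days, after which the cells were fixed, permeabilised and Hoechst-stained together and imaged at 4×. Nuclei were counted with MetaXpress, and viability is treated-well nuclei over vehicle-well nuclei, taken as a median across plates. Plates passed with control CV below 25% and at least one doubling.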

Compound in assay [2]: CCN1CCN(c2ccc(Nc3cc(N(C)C(=O)Nc4c(Cl)c(OC)cc(OC)c4Cl)ncn3)cc2)CC1 [BGJ398]
A digest of the protocol:
as §1

Compound in assay [3]: C1=CC2=NC=CN=C2C=C1/C=C/3\C(=O)NC(=O)S3 + COc1cc2c(Oc3ccc(NC(=O)C4(C(=O)Nc5ccc(F)cc5)CC4)cc3F)ccnc2cc1OCCCN1CCOCC1 [Foretinib] (partner 0.25 µM)
A digest of the protocol:
(§2)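 Relative viability is defined as nuclei in treated wells over nuclei in vehicle wells. Duplicate plates were run and medians reported. Lung cancer cell lines in 1536-well plates were dosed by pin tool one day after seeding, with one drug or with a fixed anchor-drug dose plus five library-drug doses (not always all listed) in √10 steps, and nuclei were counted after 5 days.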

Compound in assay [4]: CCN1CCN(c2ccc(Nc3cc(N(C)C(=O)Nc4c(Cl)c(OC)cc(OC)c4Cl)ncn3)cc2)CC1 [BGJ398] + CC(=O)c1c(C)c2cnc(Nc3ccc(N4CCNCC4)cn3)nc2n(C2CCCC2)c1=O [Palbociclib] (partner 0.5 µM)
Put shortly:
as §2

For the cell line UMC-11, the relative viability in assay [1] (0.02 µM) is 0.978; in assay [1] (0.06325 µM) it was 1; in assay [1] (0.2 µM), 1.01; in assay [1] (0.6325 µM), 0.925; in assay [1] (2 µM) it was 1.06; in assay [2] (0.01 µM), 0.955. For the same cell line, the relative viability worked out at 1.05 in assay [2] (0.03162 µM); 1.05 in assay [2] (0.1 µM); 0.968 in assay [2] (0.3162 µM); 0.919 in assay [2] (1 µM); 1.03 in assay [3] (first compound 0.02 µM); 1.03 in assay [3] (first compound 0.06325 µM). In addition, the relative viability is 1.09 in assay [3] (first compound 0.2 µM); 0.964 in assay [3] (first compound 0.6325 µM); 1.11 in assay [3] (first compound 2 µM); 0.327 in assay [4] (first compound 0.01 µM); 0.276 in assay [4] (first compound 0.03162 µM); 0.36 in assay [4] (first compound 0.1 µM). For the same cell line, the relative viability in assay [4] (first compound 0.3162 µM) is 0.374; in assay [4] (first compound 1 µM) it was 0.351.
